Assay [1] has as its system BRD4 binding to the HIF1A promoter. Nature of the assay: BRD4 ChIP-qPCR of the HIF1A promoter in A2780 cells. Type of assay: cell-based, human. The procedure:
Fig. 7 NHWD-870 inhibited CSF1 expression through suppressing BRD4 and HIF1α in tumor cells. a, b Representative western blot analysis of control (Ctrl) and BRD4 knockout (KO) A375 and A2780 cells exposed to 20% or 1% O2 for 24 hours. Selected from three independent experiments. c, d Representative western blot analysis of A375 and A2780 cells treated with DMSO or 25 nM NHWD-870 and exposed to 20% or 1% O2 for 24 h. Selected from three independent experiments. e Relative HIF1 luciferase reporter activity in control (Ctrl), BRD4 knockout (KO), or NHWD-870 treated A375 and A2780 cells exposed to 20% or 1% O2 for 24 h. Data are presented as mean ± SEM from three independent experiments. f RT-qPCR analyses of CSF1 in control (Ctrl), BRD4 knockout (KO), or NHWD-870 treated A375 and A2780 cells exposed to 20% or 1% O2 for 24 hours. Data are presented as mean ± SEM from three independent experiments. g RT-qPCR analyses of HIF1A in A375 or A2780 cells treated with 15 nM NHWD-870 or DMSO control for 24 h. Data are presented as mean ± SEM from three independent experiments. h Genome browser view of BRD4 ChIP-seq peaks on the HIF1A promoter. Shown are BRD4 ChIP and input control of A375 cells (top panel) and BRD4 ChIP of MDA-MB231 cells treated with DMSO or JQ-1 (bottom panel). i BRD4 ChIP-qPCR analyses of the HIF1A promoter in A2780 cells treated with DMSO or NHWD-870 for 72 h. Data are presented as mean ± SEM from three independent experiments. j RT-qPCR analyses of CSF1 in A375 and A2780 cells were transiently transduced with HIF1α, then exposed to 1% O2 for 24 h. Ctrl, Control. Data are presented as mean ± SEM from three independent experiments. k A model showing the effects of NHWD-870 on cancer cell-TAM interaction. NHWD-870 inhibits the proliferation and survival of TAMs partly by inhibiting BRD4 activity, HIF1α expression, and CSF1 secretion by tumor cells, and downregulating CSF1R mediated ERK and PI3K/AKT signaling in TAMs. p values were calculated using two-tailed, unpaired t tests in this figure. *p < 0.05; **p < 0.01; ***p < 0.001. […]
(In qPCR the cycle at which signal appears reflects the starting amount.)

For assay [2], the system named is PI3K/AKT1 and ERK phosphorylation. Nature of the assay: Western blot of p-PI3K, p-AKT1 and p-ERK in TAMs. Type of assay: cell-based, mouse. Here is the method:
Supplementary Figure 13. NHWD-870 inhibited CSF1/CSF1R signaling pathw ay to reduce TAM […]
TA M s ( 2 ×10^5 cells) (treated with or without 10 ng/ml CSF1 and 100 nM NHWD-870 for 48 h) were seeded into the 6-well bottom chamber, in the presence or absence of A2780 cells (pre-treated with or without 100 nM NHWD-870 for 48 h) seeded into the top chamber (transwell size: 0.4μm). Shown are schematics of the experiment and representative western blot analysis of the indicated proteins (a), and quantification of the relative levels of p-PI3K, p-AKT1 and p-ERK over their respective total protein (b). Data are presented as mean ± SEM from 3 independent experiments. p values were calculated using two-tailed, unpaired t tests. n.s, no significant; **, p<0.01; ***, p<0.001. Source data are provided as a Source Data file. […]
4. Protein extraction and w estern blot anal ysis. Freshly dissected unfixed tissue was homogenized in lysis buffer. The lysates were centrifuged at 13,000g for 10 minutes at 4°C. Supernatants were collected and determined with a Bradford Protein Assay kit (Bio-Rad, Hercules, CA). The cell lysates were subjected to SDS-PAGE followed by immunoblotting (Immobilon P; Millipore, Milford, MA) with specific antibodies followed by detection using an enhanced chemilumine scence kit (Amersham Life Science, Arlington Heights, IL). […]

[3] abbreviates: A2780&NHWD-870, individual replicates.
The mark [4] stands for this setting: CSF1&NHWD-870, individual replicates.

Values joined by “and” are separate entries in the source; they are usually repeats but may differ in a detail not shown here. Equal entries are not always repeated.

For `Cc1nnn(C)c1-c1cnc2c3c4cnn(C)c4ccc3n([C@H](c3ccccc3)C3CCOCC3)c2c1` [NHWD-870], in assay [1] (A2780, 15nM 3 days), the “ChIP-qPCR enrichment relative to input, IgG (Fig.7i)” value is 0.411 and 0.4665 and 0.4566; the “ChIP-qPCR enrichment relative to input, anti-BRD4 (Fig.7i)” value was 0.646 and 0.721 and 0.6555. Besides, the “BRD4 binding to the HIF1A promoter (ChIP-qPCR)” value in assay [1] (A2780 cells, 15nM, 72 h) was “decreased BRD4 binding to the HIF1A promoter”. Also, in assay [2] (setting [3]), the “p-AKT1 (Sup Fig.13b quantification)” value was 2.1 and 1.52 and 1.57; the “p-ERK (Sup Fig.13b quantification)” value is 1.19 and 1.05 and 0.87; the “p-PI3K (Sup Fig.13b quantification)” value is 2.9 and 1.18 and 1.69. In addition, in assay [2] (setting [4]), the “p-AKT1 (Sup Fig.13b quantification)” value was 6.88 and 4.52 and 4.09; the “p-ERK (Sup Fig.13b quantification)” value was 3.28 and 4.19 and 4.11; the “p-PI3K (Sup Fig.13b quantification)” value was 2.92 and 3.3 and 3.78. Moreover, in assay [2] (direct treatment of TAMs, 100 nM, 48 h), the “CSF1-induced PI3K/AKT1 and ERK phosphorylation in TAMs” value was “not affected”. Moreover, the “PI3K/AKT1 and ERK activation in TAMs co-cultured with A2780 cells” value in assay [2] (pre-treatment of A2780 cells, 100 nM, 48 h) is “blocked”.
